The values that follow come from patent US10035760B2, “Inhibitors of human immunodeficiency virus replication” (priority 2013, dated 2018).

Where two headings read alike, the source gives them in different places. Bounds are passed on as bounds.

For this experiment, the system named is recombinant NL4-3 virus (Renilla luciferase) in MT-2 cells. The experiment can be described thus: HIV cell culture assay (antiviral activity, luciferase readout in infected MT-2 cells). The settings on record: Renilla. Format: cell-based. The essentials:
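EC50 derived via median-effect equation from luciferase activity in MT-2 cells after 4–5 day infection, compound serially diluted. Virus: recombinant NL4-3 with Renilla luciferase replacing part of nef, made in 293T cells.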

Setting [1] is: NL43, read-out: Activity, antiviral activity class, recombinant NL4-3 Renilla luciferase virus in MT-2 cells.
[2] abbreviates: NL43, recombinant NL4-3 Renilla luciferase virus in MT-2 cells.

In the case of `CCc1cccc(C[C@H](NC(=O)NS(=O)(=O)c2ccccc2CC)C(=O)N(C)c2ccc(OC)cc2)c1` [Example 215, (S)-3-(3-ethylphenyl)-2-(3-((2-ethylphenyl)sulfonyl)ureido)-N-(4-methoxyphenyl)-N-methylpropanamide], the EC50 under setting [1] lay within 100 to 1000 nM. `C=CCOc1ccc(N(C)C(=O)[C@H](Cc2ccccc2)NC(=O)NS(=O)(=O)c2ccccc2C)cc1` [Example 216, (S)—N-(4-(allyloxy)phenyl)-N-methyl-3-phenyl-2-(3-(o-tolylsulfonyl)ureido)propanamide]: the EC50 under setting [1] was less than 100 nM. The same measure, in the same setting: next, `Cc1ccccc1S(=O)(=O)NC(=O)N[C@@H](Cc1ccccc1)C(=O)N(C)c1ccc(OCC(N)=O)cc1` [Example 217, (S)—N-(4-(2-amino-2-oxoethoxy)phenyl)-N-methyl-3-phenyl-2-(3-(o-tolylsulfonyl)ureido)propanamide]: 100 to 1000 nM. For `Cc1ccccc1S(=O)(=O)NC(=O)N[C@@H](Cc1ccccc1)C(=O)N(C)c1ccccc1` [Example CA-67, (S)—N-methyl-N, 3-diphenyl-2-(3-(o-tolylsulfonyl)ureido)propanamide], the EC50 under setting [1] lay within 100 to 1000 nM and the EC50 under setting [2] amounted to 490 nM. With `CCN(C(=O)[C@H](Cc1ccccc1)NC(=O)NS(=O)(=O)c1ccccc1C)c1ccccc1` [Example CA-68, (S)—N-ethyl-N, 3-diphenyl-2-(3-(o-tolylsulfonyl)ureido)propanamide], the EC50 under setting [1] lay within 100 to 1000 nM.

Take `Cc1ccccc1N(C)C(=O)[C@H](Cc1ccccc1)NC(=O)NS(=O)(=O)c1ccccc1C` [Example CA-69, (S)—N-methyl-3-phenyl-N-(o-tolyl)-2-(3-(o-tolylsulfonyl)ureido)propanamide]: the EC50 under setting [1] is 1000 to 10000 nM. For `Cc1ccccc1S(=O)(=O)NC(=O)N[C@@H](Cc1ccccc1)C(=O)N(c1ccccc1)C(C)C` [Example CA-70, (S)—N-isopropyl-N, 3-diphenyl-2-(3-(o-tolylsulfonyl)ureido)propanamide], under setting [1], the EC50 is 100 to 1000 nM. Take `Cc1ccccc1S(=O)(=O)NC(=O)N[C@@H](Cc1ccccc1)C(=O)N(C)c1ccc2ncccc2c1` [Example CA-71, (S)—N-methyl-3-phenyl-N-(quinolin-6-yl)-2-(3-(o-tolylsulfonyl)ureido)propanamide]: the EC50 under setting [1] was less than 100 nM.

For `Cc1ccc2cc(N(C)C(=O)[C@H](Cc3ccccc3)NC(=O)NS(=O)(=O)c3ccccc3C)ccc2n1` [Example CA-72, (S)—N-methyl-N-(2-methylquinolin-6-yl)-3-phenyl-2-(3-(o-tolylsulfonyl)ureido)propanamide], the EC50 is less than 100 nM under setting [1] and 30 nM under setting [2]. As to `Cc1ccccc1S(=O)(=O)NC(=O)N[C@@H](Cc1ccccc1)C(=O)N(C)c1ccc2ncn(C)c2c1` [Example CA-73, (S)—N-methyl-N-(1-methyl-H-benzo[d]imidazol-6-yl)-3-phenyl-2-(3-(o-tolylsulfonyl)ureido)propanamide], under setting [1], the EC50 was in the range of 100 to 1000 nM. Consider `CCn1c(C)nc2cc(N(C)C(=O)[C@H](Cc3ccccc3)NC(=O)NS(=O)(=O)c3ccccc3C)ccc21` [Example CA-74, (S)—N-(1-ethyl-2-methyl-1H-benzo[d]imidazol-5-yl)-N-methyl-3-phenyl-2-(3-(o-tolylsulfonyl)ureido)propanamide], for which the EC50 is 1000 to 10000 nM under setting [1] and 2030 nM under setting [2].

Turning to `Cc1ccccc1S(=O)(=O)NC(=O)N[C@@H](Cc1ccccc1)C(=O)N(C)c1ccc2nccnc2c1` [Example CA-75, (S)—N-methyl-3-phenyl-N-(quinoxalin-6-yl)-2-(3-(o-tolylsulfonyl)ureido)propanamide], the EC50 under setting [1] was in the range of 100 to 1000 nM. As to `Cc1ccccc1S(=O)(=O)NC(=O)N[C@@H](Cc1ccccc1)C(=O)N(C)c1ccc2c(c1)CCO2` [Example CA-76, (S)—N-(2,3-dihydrobenzofuran-5-yl)-N-methyl-3-phenyl-2-(3-(o-tolylsulfonyl)ureido)propanamide], the EC50 under setting [1] is less than 100 nM. In the case of `COc1ccc(N(C)C(=O)[C@H](Cc2ccccc2)NC(=O)NS(=O)(=O)c2ccccc2C)cc1C` [Example CA-77, (S)—N-(4-methoxy-3-methylphenyl)-N-methyl-3-phenyl-2-(3-(o-tolylsulfonyl)ureido)propanamide], the EC50 under setting [1] was less than 100 nM. As to `CCN(C(=O)[C@H](Cc1ccccc1)NC(=O)NS(=O)(=O)c1ccccc1C)c1ccc(OC)c(C)c1` [Example CA-78, (S)—N-ethyl-N-(4-methoxy-3-methylphenyl)-3-phenyl-2-(3-(o-tolylsulfonyl)ureido)propanamide], the EC50 runs as follows: under setting [1], 100 to 1000 nM; under setting [2], 120 nM. As for `Cc1ccccc1S(=O)(=O)NC(=O)N[C@@H](Cc1ccccc1)C(=O)N(C)c1ccc2c(c1)CCCO2` [Example CA-79, (S)—N-(chroman-6-yl)-N-methyl-3-phenyl-2-(3-(o-tolylsulfonyl)ureido)propanamide], under setting [1], the EC50 is less than 100 nM. On to `CCN(C(=O)[C@H](Cc1ccccc1)NC(=O)NS(=O)(=O)c1ccccc1C)c1ccc2ncccc2c1` [Example CA-80, (S)—N-ethyl-3-phenyl-N-(quinolin-6-yl)-2-(3-(o-tolylsulfonyl)ureido)propanamide], for which the EC50 was less than 100 nM under setting [1] and 30 nM under setting [2].

In the case of `CCN(C(=O)[C@H](Cc1ccccc1)NC(=O)NS(=O)(=O)c1ccccc1C)c1ccc2c(c1)CCCO2` [Example CA-81, (S)—N-(chroman-6-yl)-N-ethyl-3-phenyl-2-(3-(o-tolylsulfonyl)ureido)propanamide], the EC50 under setting [1] is less than 100 nM and the EC50 under setting [2] is 40 nM.

`Cc1ccc(N(C)C(=O)[C@H](Cc2ccccc2)NC(=O)NS(=O)(=O)c2ccccc2C)cc1` [Example CA-82, (S)—N-methyl-3-phenyl-N-(p-tolyl)-2-(3-(o-tolylsulfonyl)ureido)propanamide]: under setting [1], the EC50 was in the range of 100 to 1000 nM. The same measure, in the same setting: next, `CCN(C(=O)[C@H](Cc1ccccc1)NC(=O)NS(=O)(=O)c1ccccc1C)c1ccc2nc(C)ccc2c1` [Example CA-83, (S)—N-ethyl-N-(2-methylquinolin-6-yl)-3-phenyl-2-(3-(o-tolylsulfonyl)ureido)propanamide]: less than 100 nM. With `CCOc1ccc(N(C)C(=O)[C@H](Cc2ccccc2)NC(=O)NS(=O)(=O)c2ccccc2C)cc1` [Example CA-84, (S)—N-(4-ethoxyphenyl)-N-methyl-3-phenyl-2-(3-(o-tolylsulfonyl)ureido)propanamide], the EC50 under setting [1] is less than 100 nM. `CC(=O)Nc1ccc(N(C)C(=O)[C@H](Cc2ccccc2)NC(=O)NS(=O)(=O)c2ccccc2C)cc1O` [Example CA-85, (S)—N-(4-acetamido-3-hydroxyphenyl)-N-methyl-3-phenyl-2-(3-(o-tolylsulfonyl)ureido)propanamide]: the EC50 under setting [1] lay in the range of 1000 to 10000 nM. Regarding `Cc1nc2ccc(N(C)C(=O)[C@H](Cc3ccccc3)NC(=O)NS(=O)(=O)c3ccccc3C)cc2o1` [Example CA-86, (S)—N-methyl-N-(2-methylbenzo[d]oxazol-6-yl)-3-phenyl-2-(3-(o-tolylsulfonyl)ureido)propanamide], the EC50 under setting [1] is less than 100 nM. Turning to `Cc1nc2cc(N(C)C(=O)[C@H](Cc3ccccc3)NC(=O)NS(=O)(=O)c3ccccc3C)ccc2s1` [Example CA-87, (S)—N-methyl-N-(2-methylbenzo[d]thiazol-5-yl)-3-phenyl-2-(3-(o-tolylsulfonyl)ureido)propanamide], the EC50 under setting [1] lay in the range of 100 to 1000 nM.

For `Cc1ccccc1S(=O)(=O)NC(=O)N[C@@H](Cc1ccccc1)C(=O)N(C)c1ccc2scnc2c1` [Example CA-88, (S)—N-(benzo[d]thiazol-5-yl)-N-methyl-3-phenyl-2-(3-(o-tolylsulfonyl)ureido)propanamide], the EC50 was less than 100 nM under setting [1] and 60 nM under setting [2]. As to `CCN(C(=O)[C@H](Cc1ccccc1)NC(=O)NS(=O)(=O)c1ccccc1C)c1ccc(O)c(NC=O)c1` [Example CA-89, (S)—N-ethyl-N-(3-formamido-4-hydroxyphenyl)-3-phenyl-2-(3-(o-tolylsulfonyl)ureido)propanamide], the EC50 by setting is: under setting [1], 100 to 1000 nM; under setting [2], 600 nM. For the compound `Cc1ccccc1S(=O)(=O)NC(=O)N[C@@H](Cc1ccccc1)C(=O)N(C)c1ccc(O)c(NC=O)c1` [Example CA-90, (S)—N-(3-formamido-4-hydroxyphenyl)-N-methyl-3-phenyl-2-(3-(o-tolylsulfonyl)ureido)propanamide], under setting [1], the EC50 lay in the range of 1000 to 10000 nM. For the compound `Cc1ccccc1S(=O)(=O)NC(=O)N[C@@H](Cc1ccccc1)C(=O)N(C)c1cccc(C#N)c1` [Example CA-91, (S)—N-(3-cyanophenyl)-N-methyl-3-phenyl-2-(3-(o-tolylsulfonyl)ureido)propanamide], the EC50 under setting [1] was in the range of 100 to 1000 nM. For the compound `Cc1ccccc1S(=O)(=O)NC(=O)N[C@@H](Cc1ccccc1)C(=O)N(C)c1ccc(NC(=O)N(C)C)cc1` [Example CA-92, (S)—N-(4-(3,3-dimethylureido)phenyl)-N-methyl-3-phenyl-2-(3-(o-tolylsulfonyl)ureido)propanamide], the EC50 under setting [1] lay within 1000 to 10000 nM. As for `COC(=O)Nc1ccc(N(C)C(=O)[C@H](Cc2ccccc2)NC(=O)NS(=O)(=O)c2ccccc2C)cc1` [Example CA-93, (S)-methyl (4-(N-methyl-3-phenyl-2-(3-(o-tolylsulfonyl)ureido)propanamido)phenyl)carbamate], under setting [1], the EC50 was less than 100 nM.

With `Cc1ccccc1S(=O)(=O)NC(=O)N[C@@H](Cc1ccccc1)C(=O)N(C)c1cccc(C(N)=O)c1` [Example CA-94, (S)-3-(N-methyl-3-phenyl-2-(3-(o-tolylsulfonyl)ureido)propanamido)benzamide], the EC50 was 1000 to 10000 nM under setting [1] and 3260 nM under setting [2]. Take `Cc1ccccc1S(=O)(=O)NC(=O)N[C@@H](Cc1ccccc1)C(=O)N(C)c1ccc2ncsc2c1` [Example CA-95, (S)—N-(benzo[d]thiazol-6-yl)-N-methyl-3-phenyl-2-(3-(o-tolylsulfonyl)ureido)propanamide]: the EC50 under setting [1] was less than 100 nM. Still for that read-out and setting: next, `Cc1ccccc1S(=O)(=O)NC(=O)N[C@@H](Cc1ccccc1)C(=O)N(C)c1ccc2ncncc2c1` [Example CA-96, (S)—N-methyl-3-phenyl-N-(quinazolin-6-yl)-2-(3-(o-tolylsulfonyl)ureido)propanamide]: 100 to 1000 nM.
